Where two headings read alike, the source gives them in different places. Marks after values point to notes of the source that are not given here.
Key:
[1] = combining topiramate with phentermine, humans; ref Qsymia Drug Label information; cited from earlier work
[2] = system: food intake in the rat; assay: Food intake in food-deprived rats: single-drug dose-responses and isobolographic analysis; assay type: in vivo; conditions: PO, 18 h food-deprived rat, 30 min intake measured 1 h after drug; from logarithmic regressions; read-out: ED50, inhibition of food intake
Method: Male Sprague–Dawley rats (Harlan, San Diego, CA) weighing 250–350 g were used for behavioural studies. Upon arrival at the test facility, animals were triple housed within a holding room controlled for humidity, temperature, and light (lights off 1800–0600 hours). Rats received food (2018SX Teklad Rodent Diet) and water ad libitum unless stated otherwise. Over the course of all studies, rats were re-used up to four times, with at least one week of washout between tests. Rats were assigned to treatment groups pseudo-randomly from test to test. One week prior to initial drug testing, all rats were subject to a single food intake test which was identical to all subsequent drug tests, except that all rats received vehicle administration. Group size for all studies, including brain sampling, was eight.
Eighteen hours prior to food intake testing (1600 hours), food was removed from home cages. On the next day, animals were weighed and placed into cages with grid floors at 1000 hours, and allowed to acclimate to these cages for a 90-min period with free access to water and no food. At 1130 hours, rats were injected with compounds via oral gavage. Thirty minutes after injection (1200 hours), animals were allowed access to food. Food was then weighed at 30 min after food exposure (1 h after drug administration). Upon test conclusion, rats were returned to home cages with ad libitum access to food and water.
Doses were selected based upon previous in-house experience with these compounds and ascended in twofold steps. Two subsequent studies were run for each isobologram, with dose–responses of each compound pair run in combination with a fixed, low dose of the other (phentermine 1 mg/kg; AR630 1 mg/kg; dexfenfluramine 0.5 mg/kg; lorcaserin 1 mg/kg). To approximate the true experimental errors in these experiments, a bootstrapping with replacement approach was used (Huber [1981]; Launer and Wilkinson [1979]) in which five data sets were generated from random samples of the measured data points for both the individual dose–responses and for each drug/dose combination. […] A line of additivity with confidence limits was then drawn between the dose–responses of each compound alone.

[3] = Brain drug concentrations 60 min after single oral dose (LC-MS/MS); assay type: in vivo, rat; conditions: for concentration at 60 min: brain
Method: In vivo methods employed for pharmacokinetic studies were identical to those described for food intake studies except that after dosing, rats were not placed into new cages with grid floors. At 60 min after dosing (and 30 min after food access), rats were anesthetized with isoflurane, blood was collected via cardiac puncture, and brains were removed from the cranium. Blood samples were dispensed into sodium heparinized vials and capped and stored at 4 °C. Plasma was separated from formed elements in blood by centrifugation (10 min at 3,000×g) and frozen. Brains were rinsed with ice-cold phosphate-buffered saline, blotted dry, weighed, and frozen. Plasma and brain samples were stored at −80 °C prior to bioanalytical analysis.
Brain samples were thawed on ice, placed into 50 mL plastic conical tubes, and two volumes of purified water/gram of brain was added. Brains were homogenized using a mechanical variable speed tissue homogenizer; 50 μL of brain homogenate was transferred to a 1-mL plastic tube. A volume of acetonitrile (200 μL) containing internal standard was added to brain homogenate, mixed by vortex, and centrifuged (15 min at 3,700 rpm). […] Supernatants were analysed for lorcaserin, AR630, phentermine, dexfenfluramine, and the major metabolite of dexfenfluramine, norfenfluramine. Compound concentrations were determined using a LC-MS/MS method. Analytes were separated by reverse phase chromatography (Kinetex 3 × 30 mm, C18, 2.6 μm, 100 Å, HPLC Column, Phenomenex, Torrance, CA) using a binary gradient on a Shimadzu LC system (Shimadzu Corp., Columbia, MD). The gradient consisted of 0.1 % formic acid in water and 0.1 % formic acid in acetonitrile with a flow rate of 650 μL/min.

[4] = when administered alone; cited from earlier work
[5] = biological target: T1, 5-HT2A (Homo sapiens, UniProt P28223); assay: Functional activity at 5-HT2A; assay type: biochemical; conditions: internally generated data
T1 sequence (P28223 whole entry): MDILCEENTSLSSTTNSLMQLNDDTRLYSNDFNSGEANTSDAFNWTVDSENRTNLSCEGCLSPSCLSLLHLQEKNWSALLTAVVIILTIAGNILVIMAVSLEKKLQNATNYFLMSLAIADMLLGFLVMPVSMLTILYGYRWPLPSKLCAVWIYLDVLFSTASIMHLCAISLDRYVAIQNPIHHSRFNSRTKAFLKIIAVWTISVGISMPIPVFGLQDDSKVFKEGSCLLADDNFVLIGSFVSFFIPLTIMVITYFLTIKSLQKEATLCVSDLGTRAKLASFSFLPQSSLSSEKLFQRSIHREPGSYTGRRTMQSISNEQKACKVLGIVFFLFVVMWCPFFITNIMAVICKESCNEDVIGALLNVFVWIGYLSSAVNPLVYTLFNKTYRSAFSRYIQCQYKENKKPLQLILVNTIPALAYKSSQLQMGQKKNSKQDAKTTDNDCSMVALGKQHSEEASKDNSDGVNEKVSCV

[6] = biological target: T1, 5-HT2A; assay: 125I-DOI binding at 5-HT2A; conditions: internally generated data
[7] = biological target: T2, 5-HT2C (Homo sapiens, UniProt P28335); assay: 125I-DOI binding at 5-HT2C; conditions: internally generated data
T2 sequence (P28335 33-458): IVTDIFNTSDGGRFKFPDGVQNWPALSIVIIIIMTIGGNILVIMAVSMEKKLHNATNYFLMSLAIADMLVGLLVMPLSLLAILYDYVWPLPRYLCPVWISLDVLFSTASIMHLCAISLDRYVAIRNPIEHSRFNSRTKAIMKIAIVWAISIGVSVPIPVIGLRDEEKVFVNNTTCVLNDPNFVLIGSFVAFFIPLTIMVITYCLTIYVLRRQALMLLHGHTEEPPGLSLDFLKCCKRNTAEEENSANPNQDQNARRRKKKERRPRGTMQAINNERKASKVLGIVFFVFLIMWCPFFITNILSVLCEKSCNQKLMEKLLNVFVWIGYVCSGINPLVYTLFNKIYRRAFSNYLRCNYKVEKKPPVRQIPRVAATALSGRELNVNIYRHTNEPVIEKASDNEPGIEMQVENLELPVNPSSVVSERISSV

[8] = biological target: T3, 5-HT2B (Homo sapiens, UniProt P41595); assay: 125I-DOI binding at 5-HT2B; conditions: internally generated data
T3 sequence (P41595 whole entry, species assumed): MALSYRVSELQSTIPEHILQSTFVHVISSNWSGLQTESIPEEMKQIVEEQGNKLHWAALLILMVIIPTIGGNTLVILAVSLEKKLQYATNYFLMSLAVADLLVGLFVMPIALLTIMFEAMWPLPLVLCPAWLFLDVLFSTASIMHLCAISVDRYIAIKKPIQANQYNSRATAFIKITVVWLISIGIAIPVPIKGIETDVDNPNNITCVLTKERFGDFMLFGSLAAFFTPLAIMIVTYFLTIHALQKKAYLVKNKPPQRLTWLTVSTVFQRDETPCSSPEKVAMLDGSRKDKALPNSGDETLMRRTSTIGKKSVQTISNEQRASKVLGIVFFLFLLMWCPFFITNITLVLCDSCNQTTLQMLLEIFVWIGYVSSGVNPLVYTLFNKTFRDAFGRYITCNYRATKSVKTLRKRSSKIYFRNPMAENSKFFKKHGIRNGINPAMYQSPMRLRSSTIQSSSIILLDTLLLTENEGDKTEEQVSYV

[9] = biological target: T3, 5-HT2B; assay: Functional activity at 5-HT2B; assay type: biochemical; conditions: internally generated data
[10] = biological target: T2, 5-HT2C; assay: Functional activity at 5-HT2C; assay type: biochemical; conditions: internally generated data
[11] = read-out: intrinsic activity (IA)

Q: For `CC(C)(N)Cc1ccccc1` [Phentermine], which “increase in phentermine area under the curve” value [1] is on record?
A: 42%

Q: What about the ED50 [2] of the same molecule?
A: 2.45 mg/kg

Q: And the Kp at 60 min ([3]; Sprague-Dawley, brain/plasma, oral, phentermine dosed alone or in the various combinations, rat (data not shown), read-out: brain/plasma ratio)?
A: ~13

Q: What about the concentration at 60 min ([3]; Sprague-Dawley, rat, oral, 1 mg/kg, phentermine 1 mg/kg PO alone, 60 min, rat, AR630 study, mean ± SEM, read-out: Brain concentration, alone) of the same molecule?
A: 226 ± 32 ng/g

Q: And the concentration at 60 min ([3]; Sprague-Dawley, rat, oral, 1 mg/kg, phentermine 1 mg/kg PO alone, 60 min, rat, dexfenfluramine study, mean ± SEM, read-out: Brain concentration, alone)?
A: 298 ± 29 ng/g

Q: What about the concentration at 60 min ([3]; Sprague-Dawley, rat, oral, 1 mg/kg, phentermine 1 mg/kg PO alone, 60 min, rat, lorcaserin study, mean ± SEM, read-out: Brain concentration, alone) of the same molecule?
A: 298 ± 29 ng/g

Q: And the concentration at 60 min ([3]; Sprague-Dawley, rat, oral, phentermine 1 mg/kg PO with AR630 1 mg/kg, 60 min, rat, mean ± SEM, read-out: Brain concentration, combination)?
A: 866 ± 120 ng/g

Q: What about the concentration at 60 min ([3]; Sprague-Dawley, rat, oral, phentermine 1 mg/kg PO with dexfenfluramine 0.5 mg/kg, 60 min, rat, mean ± SEM, read-out: Brain concentration, combination) of the same molecule?
A: 787 ± 57 ng/g

Q: What about the concentration at 60 min ([3]; Sprague-Dawley, rat, oral, phentermine 1 mg/kg PO with lorcaserin 1 mg/kg, 60 min, rat, mean ± SEM, read-out: Brain concentration, combination) of the same molecule?
A: 335 ± 18 ng/g

Q: And the “Fold-change in brain concentration, combination vs alone” value (“Fold-change in brain concentration” for short) ([3]; phentermine 1 mg/kg PO with AR630 1 mg/kg, 60 min, rat)?
A: 3.80**

Q: And the “Fold-change in brain concentration” value ([3]; phentermine 1 mg/kg PO with AR630 1 mg/kg, 60 min, rat, listed as phentermine)?
A: 3.8

Q: And the “Fold-change in brain concentration” value ([3]; phentermine 1 mg/kg PO with dexfenfluramine 0.5 mg/kg, 60 min, rat)?
A: 2.60**

Q: And the “Fold-change in brain concentration” value ([3]; phentermine 1 mg/kg PO with dexfenfluramine 0.5 mg/kg, 60 min, rat, listed as phentermine)?
A: 2.6

Q: And the “Fold-change in brain concentration” value ([3]; phentermine 1 mg/kg PO with lorcaserin 1 mg/kg, 60 min, rat)?
A: 1.12

Q: What about the “Fold-change in brain concentration” value ([3]; phentermine 1 mg/kg PO with lorcaserin 1 mg/kg, 60 min, rat, listed as phentermine) of the same molecule?
A: 1.1

Q: What about the “fraction of dose excreted as unchanged phentermine in urine” value [4] of the same molecule?
A: 70–80%

Q: For `C[C@H]1CNCCc2ccc(Cl)cc21` [Lorcaserin], which ED50 [2] is on record?
A: 1.98 mg/kg

Q: What about the concentration at 60 min ([3]; Sprague-Dawley, rat, oral, 1 mg/kg, lorcaserin 1 mg/kg PO alone, 60 min, rat, mean ± SEM, read-out: Brain concentration, alone) of the same molecule?
A: 1380 ng/g

Q: What about the concentration at 60 min ([3]; Sprague-Dawley, rat, oral, lorcaserin 1 mg/kg PO with phentermine 1 mg/kg, 60 min, rat, mean ± SEM, read-out: Brain concentration, combination) of the same molecule?
A: 1440 ng/g

Q: What about the “Fold-change in brain concentration” value ([3]; lorcaserin 1 mg/kg PO with phentermine 1 mg/kg, 60 min, rat) of the same molecule?
A: 1.05

Q: What does the source list for `CC(N)Cc1cccc(C(F)(F)F)c1` (centres unmarked) [Norfenfluramine, norfenfluramine]?
A: brain concentration of metabolite relative to parent dexfenfluramine ([3]; after dexfenfluramine PO, 60 min, rat): approximately sixfold; Brain concentration, alone ([3]; metabolite norfenfluramine after dexfenfluramine 0.5 mg/kg PO alone, 60 min, rat, mean ± SEM): 805 ± 50 ng/g; Fold-change in brain concentration, combination vs alone ([3]; metabolite norfenfluramine after dexfenfluramine 0.5 mg/kg PO with phentermine 1 mg/kg, 60 min, rat): 0.94; Brain concentration, combination ([3]; metabolite norfenfluramine after dexfenfluramine 0.5 mg/kg PO with phentermine 1 mg/kg, 60 min, rat, mean ± SEM): 760 ± 27 ng/g

Q: With `CCN[C@@H](C)Cc1cccc(C(F)(F)F)c1` [Dexfenfluramine, (S)+-fenfluramine] as the molecule, how does the ED50 [2] read?
A: 1.44 mg/kg

Q: What about the concentration at 60 min ([3]; Sprague-Dawley, rat, oral, 0.5 mg/kg, dexfenfluramine 0.5 mg/kg PO alone, 60 min, rat, mean ± SEM, read-out: Brain concentration, alone) of the same molecule?
A: 130 ± 13 ng/g

Q: And the concentration at 60 min ([3]; Sprague-Dawley, rat, oral, dexfenfluramine 0.5 mg/kg PO with phentermine 1 mg/kg, 60 min, rat, mean ± SEM, read-out: Brain concentration, combination)?
A: 141 ± 19 ng/g

Q: What about the “Fold-change in brain concentration” value ([3]; dexfenfluramine 0.5 mg/kg PO with phentermine 1 mg/kg, 60 min, rat) of the same molecule?
A: 1.08

Q: Which ED50 [2] does the source give for `C[C@@H]1CNCCN1c1cc(Cl)ccc1F` [AR630] here?
A: 4.25 mg/kg

Q: What about the EC50 [5] of the same molecule?
A: 0.4 µM

Q: What about the Emax [5, 11] of the same molecule?
A: 60%

Q: And the Ki [6]?
A: 0.12 µM

Q: What about the Ki [7] of the same molecule?
A: 0.004 µM

Q: What about the Ki [8] of the same molecule?
A: 0.1 µM

Q: What about the “Fold-change in brain concentration” value ([3]; AR630 1 mg/kg PO with phentermine 1 mg/kg, 60 min, rat) of the same molecule?
A: 1.12

Q: And the concentration at 60 min ([3]; Sprague-Dawley, rat, oral, AR630 1 mg/kg PO with phentermine 1 mg/kg, 60 min, rat, mean ± SEM, read-out: Brain concentration, combination)?
A: 92 ± 25 ng/g

Q: What about the concentration at 60 min ([3]; Sprague-Dawley, rat, po, 1 mg/kg, AR630 1 mg/kg PO alone, 60 min, rat, mean ± SEM, read-out: Brain concentration, alone) of the same molecule?
A: 82 ± 14 ng/g

Q: And the EC50 [9]?
A: 1 µM

Q: And the Emax [9, 11]?
A: < 10%

Q: What about the EC50 [10] of the same molecule?
A: 0.01 µM

Q: What about the Emax [10, 11] of the same molecule?
A: 100%

From publication PMC4425807, “Investigating interactions between phentermine, dexfenfluramine, and 5-HT2C agonists, on food intake in the rat” (Psychopharmacology, 2014)
